{"source": "patent US20210321645A1", "about": "“STABILIZER FOR PYRROLOQUINOLINE QUINONE, COMPOSITION COMPRISING THE SAME, AND METHOD OF STABILIZATION” (Mitsubishi Gas Chemical Company, Inc., priority 2018, published 2021)", "test": "Accelerated storage test of beverages, BioPQQ recovery by HPLC", "format": "physicochemical", "conditions": "beverages stored at 60° C. (Table 5), in words", "procedure": "Analysis conditions of pyrroloquinoline quinone disodium salt\nHPLC Conditions: • Shimadzu LC-2010 • Column: YMC-Pack ODS-A • Detection wavelength: 259 nm • Mobile phase: 30 mM acetic acid-70 mM ammonium acetate • Column temperature: 40° C.\n(Accelerated Storage Test)\nThe sample of Example 1 was stored under the conditions of 60° C. for 2 weeks, which are equivalent to those of room temperature for 2 years. When the stored sample was subjected to HPLC, 97% of BioPQQ was recovered.", "data": [{"smiles": "OC[C@@H](O)[C@@H](O)CO", "note": "[Erythritol]", "values": [{"measurement": "stabilizing effect on BioPQQ", "value": "high stabilizing effect"}]}]}
